Among the data in PubChem BioAssay AID788 (SRMLSC, 2007) are IC50 values, retold here.

Molecules are shown by their SMILES. The source made the active and inactive calls. How the calls were made is not given here. Some results are limits rather than exact numbers.

The subject of assay [1] is S. cerevisiae wild-type background strain growth inhibition. The assay can be described thus: vps1Δ apl2Δ double mutant yeast growth inhibitors – S. cerevisiae, background strain comparison, post-Golgi transport modulator project, dose response (AID 788). Conditions: S. cerevisiae vps1Δ apl2Δ growth inhibition, dose response; measured here: wild-type background strain growth.

The subject of assay [2] is S. cerevisiae vps1Δ apl2Δ growth inhibition, dose response. The assay is described as above.

Broadly, the IC50 is the midpoint of a concentration-inhibition curve. Take `CCC(C)c1ccc(OCCCCN2CCOCC2)cc1` (stereo unspecified): the IC50 in assay [1] is above 10 µM; in assay [2], 4.71 µM.
The corresponding values for `Cc1cc(OCC(F)(F)C(F)(F)C(F)(F)C(F)(F)C(F)(F)C(F)F)nc(N)n1` are above 10 µM and > 10 µM (inactive).
For the compound `ON=Cc1cccn1-c1ccccc1`, the IC50 in assay [1] was above 10 µM; in assay [2] it was > 10 µM (inactive).
Regarding `c1ccc(COc2ccc(CN3CCN(c4ccccn4)CC3)cc2)cc1`, the IC50 in assay [1] was above 10 µM; in assay [2], > 10 µM (inactive).
Regarding `N#CC1=C2SCC(O)(c3ccccc3)N2C(=O)CC1c1ccccc1` (stereo unspecified), the half-maximal inhibitory concentration (IC50) is above 10 µM in assay [1] and > 10 µM (inactive) in assay [2].
For the compound `COc1ccc(NC(=O)c2ccc(CN3CCN(c4ccccc4)CC3)cc2)cc1`, the figures for the IC50 in assay [1] and in assay [2] were above 10 µM and > 10 µM (inactive), respectively.
`CCc1ccc(C(=O)/C=C/c2ccc([N+](=O)[O-])o2)cc1`: the figures for the IC50 in assay [1] and in assay [2] were 20.7 µM and 23.1 µM (inactive), respectively.
On to `OC(c1ccc(Cl)cc1Cl)C(Cc1cccnc1)n1cncn1` (stereo unspecified), for which the values for the IC50 in assay [1] and in assay [2] were above 10 µM and > 10 µM (inactive), respectively.
For the compound `Cc1cc(O)c(/C=N/Nc2ccc(Cl)cc2)c(=O)o1`, the IC50 in assay [1] is 4.69 µM; in assay [2], 3.33 µM.
Turning to `CCN(CC)c1ccc(CN2CC=C(c3ccc(F)cc3)CC2)cc1`, the values for the IC50 in assay [1] and in assay [2] were 25.8 µM and 9.87 µM, respectively.
For `CCOCCCNC(=O)C1CCN(C(=O)N(C)C)CC1`, the 50% inhibitory concentration (IC50) was above 10 µM in assay [1] and > 10 µM (inactive) in assay [2].
Turning to `CC(=O)Nc1ccccc1NS(=O)(=O)c1ccc(Cl)cc1`, the IC50 in assay [1] is above 10 µM; in assay [2], > 10 µM (inactive).
On to `Cc1cccc2cc(C#N)c(NCCCn3ccnc3)nc12`, for which the IC50 was above 10 µM in assay [1] and > 10 µM (inactive) in assay [2].
For `CCCc1cc(NCCCCO)n2c(nc3ccccc32)c1C#N`, the results for the concentration for half-maximal inhibition (IC50) in assay [1] and in assay [2] were above 10 µM and > 10 µM (inactive), respectively.
`Cn1c2ccc(Cl)cc2c2nc3ccccc3nc21`: the IC50 in assay [1] is above 10 µM; in assay [2], > 10 µM (inactive).
The corresponding values for `Cc1nnc(-c2cccc(Br)c2)c2cn(-c3ccccc3Cl)nc12` are 25.9 µM and 2.73 µM.
`O=[N+]([O-])c1ccc(N/N=C/c2c[nH]c3ccccc23)c(S(=O)(=O)Nc2ccc(Cl)cc2)c1`: the IC50 in assay [1] was 2.5 µM; in assay [2], 2.15 µM.
For `Cc1ccc(S(=O)(=O)N(CC(=O)N2CCC(C(N)=O)CC2)c2cccc(C(F)(F)F)c2)cc1`, the figures for the IC50 in assay [1] and in assay [2] were above 10 µM and > 10 µM (inactive), respectively.
`COc1cccc(NC(=O)C2CCCN2C(=O)OCc2ccccc2)c1` (stereo unspecified): the figures for the IC50 in assay [1] and in assay [2] were above 10 µM and > 10 µM (inactive), respectively.
Turning to `Clc1cc(Br)ccc1OCCOCCN1CCOCC1`, the IC50 in assay [1] is above 10 µM; in assay [2], 20.3 µM.
For `COc1ccc2nc(NCCCNC(=O)c3cc(OC)c(OC)c(OC)c3)c(C#N)cc2c1`, the IC50 was above 10 µM in assay [1] and > 10 µM (inactive) in assay [2].
The corresponding values for `Cc1ccc(N2CCN(S(=O)(=O)N3CCCCCC3)CC2)cc1Cl` are above 10 µM and > 10 µM (inactive).
With `CCOC(=O)C(C)Oc1ccc2c(C)cc(=O)oc2c1C(C)=O` (stereo unspecified), the IC50 is above 10 µM in assay [1] and > 10 µM (inactive) in assay [2].
For `O=C1NC2(Nc3ccccc31)C(=O)Nc1ccccc12` (stereo unspecified), the IC50 is above 10 µM in assay [1] and > 10 µM (inactive) in assay [2].
The corresponding values for `O=C(NCC(=O)N(c1cccnc1)C(C(=O)NCc1ccco1)c1ccccc1)c1ccco1` (stereo unspecified) are above 10 µM and > 10 µM (inactive).
Take `O=C(N/N=C/c1ccc(OC(=O)c2ccccc2)cc1)c1ccc(CN2CCOCC2)cc1`: the IC50 in assay [1] was above 10 µM; in assay [2] it was > 10 µM (inactive).
With `CC(=O)c1cnc2nc(C)nn2c1C`, the values for the IC50 in assay [1] and in assay [2] were above 10 µM and > 10 µM (inactive), respectively.
The corresponding values for `CC(C)Cc1[nH]c(=O)c(C#N)c2c1CCC2` are above 10 µM and > 10 µM (inactive).
Turning to `Cc1ccc(S(=O)(=O)N2CCN(C3CCN(Cc4ccccc4)CC3)CC2)cc1`, the IC50 was above 10 µM in assay [1] and 24.5 µM in assay [2].
On to `Cc1ccc(-n2cc3c(-c4cccc(Br)c4)nnc(C)c3n2)cc1`, for which the IC50 in assay [1] is 13.5 µM; in assay [2], 1.94 µM.
Consider `COc1cccc(OCCCCN2CC(C)OC(C)C2)c1` (stereo unspecified), for which the IC50 in assay [1] was above 10 µM; in assay [2], 4.38 µM.
As for `O=C(OCn1ncc(Cl)c(Cl)c1=O)c1cccc(C(F)(F)F)c1`, the IC50 was 3.51 µM in assay [1] and 6 µM (inactive) in assay [2].
Turning to `CC(NC(=O)CSc1nc2c(cc1C#N)CN(C)CC2)c1ccccc1` (stereo unspecified), the IC50 was above 10 µM in assay [1] and > 10 µM (inactive) in assay [2].
With `O=C(Cn1nnc(-c2ccc(S(=O)(=O)N3CCCC3)cc2)n1)NCC1CCCO1` (stereo unspecified), the IC50 in assay [1] was above 10 µM; in assay [2] it was > 10 µM (inactive).
The corresponding values for `CC1CN(CCCCOc2ccc(C(C)C)cc2)CC(C)O1` (stereo unspecified) are above 10 µM and 0.703 µM.
For `Cc1ccc(/C=N/n2cnc3sc(-c4ccccc4)cc3c2=O)o1`, the 50% inhibitory concentration (IC50) in assay [1] is above 10 µM; in assay [2] it was > 10 µM (inactive).
As for `CCC(=O)N(CCO)Cc1cc2ccc(C)c(C)c2[nH]c1=O`, the IC50 was above 10 µM in assay [1] and > 10 µM (inactive) in assay [2].
The corresponding values for `Cc1cc([N+](=O)[O-])c(-c2ccc(/C=N/n3cnnc3)o2)cc1Cl` are 0.134 µM and 0.39 µM (inactive).
On to `O=C(c1ccco1)N1CCN=C1SCc1cccnc1`, for which the values for the half-inhibitory concentration (IC50) in assay [1] and in assay [2] were above 10 µM and > 10 µM (inactive), respectively.
Regarding `COc1ccc(C2CC(=O)C3=C(C2)NC(C)=C(C(=O)Nc2ccccc2C)C3c2coc3ccc(C)cc3c2=O)cc1OC` (stereo unspecified), the IC50 in assay [1] was above 10 µM; in assay [2], > 10 µM (inactive).
On to `O=C1CN(C(=O)CSc2nnc(-c3ccccc3)n2Cc2ccc3c(c2)OCO3)c2ccccc2N1`, for which the IC50 was above 10 µM in assay [1] and > 10 µM (inactive) in assay [2].
With `Cc1ccnc(N2C(=O)c3cccc4c([N+](=O)[O-])ccc(c34)C2=O)c1`, the IC50 was 4.22 µM in assay [1] and 5.37 µM (inactive) in assay [2].
With `Cc1c(Cc2ccccc2)c(=O)oc2c(C)c(OCc3nn[nH]n3)ccc12`, the IC50 was above 10 µM in assay [1] and > 10 µM (inactive) in assay [2].
The corresponding values for `O=C(COc1ccc(Cl)cc1)Nc1ccc(N2CCN(C(=O)c3ccco3)CC2)cc1` are above 10 µM and > 10 µM (inactive).
On to `Cc1ccc(C)c(C(=O)NCc2ccncc2)c1`, for which the half-maximal inhibitory concentration (IC50) in assay [1] was above 10 µM; in assay [2], > 10 µM (inactive).
For `COc1ccc(C2=NC(C(F)(F)F)(C(F)(F)F)c3c(n(C)c(=O)n(C)c3=O)N2)cc1`, the values for the IC50 in assay [1] and in assay [2] were above 10 µM and > 10 µM (inactive), respectively.
Regarding `Cc1ccc(SC(=O)COc2ccc(C)c(C)c2)cc1`, the 50% inhibitory concentration (IC50) is above 10 µM in assay [1] and > 10 µM (inactive) in assay [2].
For `Cc1cc(=O)oc2c(CN3CCCCC3)c(O)c(Cl)cc12`, the half-maximal inhibitory concentration (IC50) is above 10 µM in assay [1] and > 10 µM (inactive) in assay [2].
The corresponding values for `COc1cccc(NC(=O)c2ccc(CN3CCN(c4ccccc4)CC3)cc2)c1` are above 10 µM and > 10 µM (inactive).
For the compound `COC(=O)c1ccc(NC(=O)c2cn(-c3ccccc3)nc2-c2ccncc2)cc1`, the figures for the IC50 in assay [1] and in assay [2] were above 10 µM and > 10 µM (inactive), respectively.
With `CCOc1ccc(-c2[nH]ncc2Oc2ccccc2OCC)c(O)c1`, the figures for the IC50 in assay [1] and in assay [2] were 16 µM and 7.98 µM, respectively.
On to `CCCCOc1ccc(-c2ncc(C(=O)O)c(C)n2)cc1`, for which the IC50 was above 10 µM in assay [1] and > 10 µM (inactive) in assay [2].
On to `CCOC(=O)c1ccc(NC(=O)c2ccc(CN3CCOCC3)cc2)cc1`, for which the IC50 in assay [1] was above 10 µM; in assay [2], 24.9 µM.
For `O=C(COc1ccc(Cl)cc1Cl)N1CCN(C/C=C/c2ccccc2)CC1`, the IC50 is 7.14 µM in assay [1] and 1.46 µM in assay [2].
The corresponding values for `CC(C)OC(=O)CSc1nnc(-c2ccc(Cl)cc2)n1N` are above 10 µM and > 10 µM (inactive).
As for `CC(C)COC(=O)c1ccc2c(c1O)C(=O)c1ccccc1C2=O`, the values for the IC50 in assay [1] and in assay [2] were above 10 µM and > 10 µM (inactive), respectively.
The corresponding values for `N#CC1=C(N)NC(SCc2ccc(F)cc2)=C(C#N)C12CCCCC2` are 16.3 µM and 4.84 µM.
The corresponding values for `CC(=O)c1ccc(N2CCN(C(=O)c3ccc(Br)cc3)CC2)c(F)c1` are 6.58 µM and 0.628 µM.
Consider `Cc1ccn2cc(-c3nonc3C)cc2c1`, for which the results for the half-inhibitory concentration (IC50) in assay [1] and in assay [2] were above 10 µM and > 10 µM (inactive), respectively.
`CCC(C)(C)NC(=O)CN(C(=O)CCC(=O)Nc1ccccn1)c1ccc(F)c(Cl)c1`: the IC50 in assay [1] was above 10 µM; in assay [2], > 10 µM (inactive).
As for `Cn1c(=O)cc(NCc2ccccc2)[nH]c1=O`, the IC50 in assay [1] is above 10 µM; in assay [2], > 10 µM (inactive).
As to `Cc1ccc(-c2csc3nnc(SCC(=O)Nc4cccc(C)n4)n23)cc1`, the values for the half-inhibitory concentration (IC50) in assay [1] and in assay [2] were above 10 µM and > 10 µM (inactive), respectively.
For `O=C(NCc1ccccc1)NS(=O)(=O)c1ccccc1Cl`, the IC50 in assay [1] was above 10 µM; in assay [2], > 10 µM (inactive).
On to `Clc1ccc(-c2n[nH]c3c2CCC3)c(Cl)c1`, for which the IC50 in assay [1] is 0.518 µM; in assay [2] it was 1.04 µM (inactive).
As for `CCn1c(SCC(=O)N2CCCc3ccccc32)nnc1-c1ccco1`, the concentration for half-maximal inhibition (IC50) was above 10 µM in assay [1] and > 10 µM (inactive) in assay [2].
The corresponding values for `Cc1c(C)c2cc(Cl)c(O)c(CN3CCN(C)CC3)c2oc1=O` are above 10 µM and > 10 µM (inactive).
`Cc1ccc(NS(=O)(=O)c2cc(C(=O)N3CCOCC3)ccc2C)cc1`: the figures for the IC50 in assay [1] and in assay [2] were above 10 µM and > 10 µM (inactive), respectively.
As for `O=C(Cn1ncc2c3ccccc3n(Cc3ccccc3F)c2c1=O)N1CCC2(CC1)OCCO2`, the concentration for half-maximal inhibition (IC50) in assay [1] was above 10 µM; in assay [2] it was > 10 µM (inactive).
